This note sets out measurements from publication PMC6615598, “Novel antibiotics effective against gram-positive and -negative multi-resistant bacteria with limited resistance” (PLoS Biology, 2019).

One test concerns S. aureus N315 (MRSA). As to the kind of experiment: microbe, parasite or virus in culture. The procedure:
(§1) (10−4 M final concentrations). At selected time intervals, 100 μl of reaction mixture was collected, quenched by 200 μl 95% EtOH, and adjusted at pH 2 to prevent peptide adsorption to serum proteins. […] Supernatants were analyzed by RP-HPLC on an Xbridge C18 column with a linear gradient of water, 0.08% TFA, and acetonitrile with 1% TFA. HPLC peak areas were used to calculate the percentages of intact compound remaining at the various time points. MIC and MBC values were determined in triplicate in many ESKAPE clinical isolates, including a dozen MDR S. aureus, by the broth microdilution method. Peptidomimetics and antibiotics were assayed in a concentration range of 1 to 128 μM. The bacterial inoculum (5 × 10^5 colony-forming units [CFUs]/well) was prepared in MHB or CAMHB (150 μl). A Biotek Synergy 2 spectrophotometer was used to record the results after 18–20 h incubation at 35°C (±2°C). […] After every hour of culture for 4 h, serial dilutions were plated on BHI plates and incubated overnight at 37°C, and then the CFUs were counted and expressed as log CFU/ml. Phosphate-buffered saline (PBS)-exposed S. aureus MRSA was included as a control.

The next test relates to P. aeruginosa LESB58. As to the kind of experiment: Cutaneous abscess mouse model (CFU). The test is classed as in vivo, mice. The conditions noted are these: cutaneous abscesses induced by P. aeruginosa in mice; repeated doses post-infection, 9 mg/kg; second data set; individual values. The procedure: For the cutaneous abscess model, the mice were randomly divided into 5 sets. The mice were anesthetized with isoflurane, their dorsal fur shaved, and their skin disinfected with 70% ethanol. An overnight culture of S. aureus MRSA or P. aeruginosa LESB58 was washed with 0.9% NaCl, and then a subcutaneous injection of 2 × 10^9 CFUs and an equal amount of sterile Cytodex microcarrier beads (20 mg.ml^−1, Sigma) for S. aureus MRSA, or 10^8 CFUs for P. aeruginosa were injected into the shaved area. […] Mice were monitored every day and then euthanized with CO2 on Day 6 or on Day 3. Abscesses were excised, measured, and homogenized in PBS using an Ultra-Turax. Serial dilutions of the samples were plated on BHI (MRSA) or 2YT medium (LESB58) plates and then incubated overnight at 37°C. Afterward, the CFUs were counted and expressed as log CFU/ml. Dermonecrosis areas were calculated according to the formula π × L × W. ATP levels were determined with an ATP assay kit (Promega) according to manufacturer instructions on sets of 5 colonies harboring the SCV phenotype, and sets of 5 colonies harboring a normal phenotype, after growth on BHI plates.

The test system of another test is MSSA (Newman). As to the kind of experiment: microbe, parasite or virus in culture. Particulars: for MIC: Staphylococcus aureus. The procedure:
(§2) For 15 d in MHB, MICs were determined daily for each pseudopeptide and their antibiotic controls. This was done using cells from the well in which the compound concentration was one-half of the MIC (1/2MIC). For each compound, the 1/2MIC well from the previous day’s MIC assay plate was re-suspended and the bacteria grown to a density of about 10^8 cells ml−1. The suspension was diluted in MHB or CAMHB (10^6 cells/ml) and then used to determine the MIC of the same compound determined by micro broth dilution. All MIC measurements were performed in duplicate. Aliquots of the 5 × 10^4 cell/ml dilutions for each 1/2MIC well were periodically plated on MHB and incubated at 35°C for 18 h to verify cell density by colony counts and for visual inspection of colony phenotypes. To control compound stability, peptide solution MICs were determined during and at the end of the 15 d and were compared to cells unexposed to antibiotics. In vivo resistance was also assessed in treated mice (1.5 mg.kg^−1) for 4 d (sepsis) or 6 d (skin abscesses). […] The broth microdilution method was performed as per EUCAST recommendations on 5 independent colonies per mouse (3 mice per set, 15 colonies per drug tested). For severe sepsis and subcutaneous abscesses, in vivo resistance was determined by plating aliquots of crude kidney extracts or abscesses on plates containing 1-, 2-, 4-, or 8-fold the peptide MICs 7 or 3 d post infections, respectively.

The test system of another test is MRSA (Mu3). Briefly: microbe, parasite or virus in culture. The procedure:
as §2

Another test relates to E. coli 13090. As to the kind of experiment: microbe, parasite or virus in culture. The method, then:
as §2

The next test relates to E. coli MCR1. As to the kind of experiment: microbe, parasite or virus in culture. The method, then: as §2
The subject of the next test is P. aeruginosa 15643. Briefly: microbe, parasite or virus in culture. The procedure:
as §2

For the next test, the system named is E. coli K12. As to the kind of experiment: microbe, parasite or virus in culture. The procedure:
as §2

The subject of the next test is Escherichia coli K12. Particulars: E. coli K12; broth microdilution; 3 independent experiments. The method, then: as §1
On the technique in general: Dilution methods test growth across graded concentrations, often in twofold steps.

For the next test, the system named is S. aureus Newman. As to the kind of experiment: microbe, parasite or virus in culture. Particulars: S. aureus Newman; broth microdilution; 3 independent experiments. The procedure:
as §1

The next test concerns S. aureus Mu3 (MRSA). Briefly: microbe, parasite or virus in culture. The conditions noted are these: S. aureus Mu3 (MRSA); broth microdilution; 3 independent experiments. The procedure: as §1

Converted amounts (≈) assume the structure as drawn. “And” between values parts separate entries of the source, which are not always exact repeats. Identical values can stand only once.

For `COc1cccc(OC)c1C(=O)N[C@@H]1C(=O)N2[C@@H]1SC(C)(C)[C@@H]2C(=O)O` [Methicillin, methicillin], the MIC in the test with S. aureus N315 (MRSA) (Staphylococcus aureus, MRSA) was 32 µM.

As for Colistine, the “CFU counts per abscess” value in the test with P. aeruginosa LESB58 was 3.8 log Cfu/ml and 4 log Cfu/ml and 4.8 log Cfu/ml and 4.6 log Cfu/ml.

Turning to `CO[C@H]1/C=C/O[C@@]2(C)Oc3c(C)c(O)c4c(O)c(c(/C=N/N5CCN(C)CC5)c(O)c4c3C2=O)NC(=O)/C(C)=C\C=C\[C@H](C)[C@H](O)[C@@H](C)[C@@H](O)[C@@H](C)[C@H](OC(C)=O)[C@@H]1C` [Rifampicin, rifampicin], the “Increase of MIC after 2 weeks of serial passages” value with MSSA (Newman) (S. aureus) is recorded as “about 30,000 fold”. The MIC was 0.03 µM (≈ 0.0247 µg/mL) against MSSA (Newman) (MSSA (Newman), d0 of serial passages); 1020 µM (≈ 843 µg/mL) in the test on MSSA (Newman) (MSSA|NEWMAN, d14 of serial passages at sub-MIC); 1,024 (843) μM in the test on MRSA (Mu3) (MRSA (Mu3), d14 of serial passages at sub-MIC); 1020 µM (≈ 843 µg/mL) in the test on MRSA (Mu3) (Staphylococcus aureus, MRSA).

With `C[C@@H]1O[C@@H]1P(=O)(O)O` [Fosfomycin, fosfomycin, reference compound], the MIC against E. coli 13090 (E. coli 13090, d0 of serial passages) amounted to 27 µg/mL; in the test with E. coli 13090 (Escherichia coli, 13090), 200 µM; in the test on E. coli MCR1 (E. coli MCR1, d0 of serial passages), 27 µg/mL; in the test on E. coli MCR1 (Escherichia coli, MCR1) it was 200 µM; in the test with P. aeruginosa 15643 (P. aeruginosa 15643, d0 of serial passages), 27 µg/mL; in the test with P. aeruginosa 15643 (Pseudomonas aeruginosa, 15643) it was 200 µM. Moreover, the MIC with E. coli K12 (E. coli K12, d0 of serial passages) is 27 µg/mL; in the test with E. coli K12 (Escherichia coli, K12) it was 200 µM.

In the case of nisin, the MIC in the test on Escherichia coli K12 is listed as 4 (16) μM; in the test with S. aureus N315 (MRSA) (S. aureus N315 (MRSA), broth microdilution, 3 independent experiments), 8 (32) μM; in the test on S. aureus Newman it was 8 (32) μM; with S. aureus Mu3 (MRSA), 8 (32) μM.
